The structures appear in SMILES notation. Square brackets hold non-standard residues; d marks the D form. Peptide text beside a SMILES is read from it. Sta = CC(C)C[C@H](N)[C@@H](O)CC(=O)O; 4Abz = Nc1ccc(C(=O)O)cc1

Data on three compounds can be found in patent US20130323171A1, “RADIOLABELED BBN ANALOGS FOR PET IMAGING OF GASTRIN-RELEASING PEPTIDE RECEPTORS” (priority 2012, published 2013).

The nature of data set [1]: Mouse serum stability of the PET probes. The settings on record: 37° C., 1 h. The format is in vitro ADME. The protocol:
The in vitro stability of the PET probes was evaluated by incubation with mouse serum (1 mL) at 37° C. for 1 h. The solutions were filtered using a NanoSep 10 K centrifuge (Pall Corp.) to isolate low-molecular-weight radiocomplexes. The samples were analyzed by the radio-HPLC, and the percentages of intact PET probe were determined by quantifying the peaks corresponding with the intact probe and degradation products.
More than 95% of the probes remained intact after 1 h of incubation in mouse serum at 37° C.

For a further data set, the target named is T1, GRPR (Homo sapiens, UniProt P30550).
T1 construct: endogenous in cells; host or cells: PC3 cells
T1 sequence (P30550 whole entry): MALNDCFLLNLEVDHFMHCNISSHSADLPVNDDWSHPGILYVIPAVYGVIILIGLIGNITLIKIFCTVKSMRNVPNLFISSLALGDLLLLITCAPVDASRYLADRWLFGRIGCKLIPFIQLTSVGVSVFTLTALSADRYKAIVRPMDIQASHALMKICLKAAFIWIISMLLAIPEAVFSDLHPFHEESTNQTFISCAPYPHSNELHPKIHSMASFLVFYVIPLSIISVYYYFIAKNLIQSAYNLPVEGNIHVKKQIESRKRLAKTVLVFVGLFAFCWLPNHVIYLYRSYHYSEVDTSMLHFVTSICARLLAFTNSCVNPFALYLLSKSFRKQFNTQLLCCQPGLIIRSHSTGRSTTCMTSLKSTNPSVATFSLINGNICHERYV
The experiment in a line: Cell-binding assay: inhibition of ^125I-[Tyr4]BBN binding on PC3 cells. The settings on record: 0.06 nM radioligand, 37° C., 1 h, n=4, mean±SD. The protocol: The cell-binding assay was performed similarly as previously reported (18, 35). Briefly, the PC3 cells (3×10^4) were incubated with 0.06 nM ^125I-[Tyr4]BBN and varying concentrations of peptides in the binding buffer (RPMI 1640+2 mg/mL BSA+5.2 mg/mL HEPES) at 37° C. for 1 h. The cell-bound, residual radioactivity after washing was determined by gamma counting. […] The experiments were performed in quadruplicate.
All of these peptides inhibited the GRPR-binding of ^125I-[Tyr4]BBN on the PC3 cells in a concentration-dependent manner.

For the compound `CSCC[C@H](NC(=O)[C@H](CC(C)C)NC(=O)[C@H](Cc1c[nH]cn1)NC(=O)CNC(=O)[C@@H](NC(=O)[C@H](C)NC(=O)[C@H](Cc1c[nH]c2ccccc12)NC(=O)[C@H](CCC(N)=O)NC(=O)c1ccc(NC(=O)CNC(=O)CCC(C(=O)O)N2CCN(CC(=O)O)CCN(CC(=O)O)CC2)cc1)C(C)C)C(N)=O` (single isomer, unassigned) [^64Cu-NODAGA-AMBA, metal not drawn], the “stability in mouse serum” value in data set [1] is on record as “exhibited degradation”. On GRPR, `CC(C)C[C@H](NC(=O)C[C@H](O)[C@H](CC(C)C)NC(=O)[C@H](Cc1c[nH]cn1)NC(=O)CNC(=O)[C@@H](NC(=O)[C@H](C)NC(=O)[C@H](Cc1c[nH]c2ccccc12)NC(=O)[C@H](CCC(N)=O)NC(=O)[C@@H](Cc1ccccc1)NC(=O)c1ccc(NC(=O)CN)cc1)C(C)C)C(N)=O` [RM1, G-4-aminobenzoyl-D-Phe-Gln-Trp-Ala-Val-Gly-His-Sta-Leu-NH2] (H-G[4Abz][dF]QWAVGH[Sta]L-NH2; N-terminus assumed) displayed an IC50 of 0.25 ± 0.04 nM. Still for that read-out and setting: the result for `CSCC[C@H](NC(=O)[C@H](CC(C)C)NC(=O)[C@H](Cc1c[nH]cn1)NC(=O)CNC(=O)[C@@H](NC(=O)[C@H](C)NC(=O)[C@H](Cc1c[nH]c2ccccc12)NC(=O)[C@H](CCC(N)=O)NC(=O)c1ccc(NC(=O)CN)cc1)C(C)C)C(N)=O` [AMBA] reads 0.17 ± 0.07 nM.
